According to patent publication EP4759148A1, “ADJUSTMENT OF CIRCADIAN RHYTHM” (MEIJI CO., LTD, priority 2023, dated 2025):

Columns and labels:
GPR41 gene = assay: induction of GPR41 gene expression in Caco-2 cells (real-time PCR); type: cell-based, human; settings: 5 mM fumaric acid, 60 minutes, differentiated Caco-2 cells; Fig. 2
Procedure: Caco-2 cells were seeded in a 24-well plate at 2 × 10^5 cells/well. After 3 weeks of differentiation induction, 5 mM fumaric acid was added, and cells were collected 60 minutes later. RNA was extracted, and GPR41 gene expression levels were measured by real-time PCR.

per2 reporter cells = assay: circadian rhythm assay (luciferase reporter assay) using per2 reporter cells; type: cell-based, human; settings: 5 mM fumaric acid
Procedure: Referring to the "Cell-based circadian assays" described in the article by H. Oike et al. (NPL 1), a circadian rhythm assay (luciferase reporter assay) using per2 reporter cells was performed to evaluate the action of fumaric acid on circadian rhythms.
U-2OS cells were transfected with a vector prepared by incorporating the per2 promoter region into a NanoLuc (registered trademark) luciferase vector by using transfection reagent 1 according to a standard method. After about 24 hours, the medium was replaced, and dexamethasone was added at a final concentration of 100 nM to synchronize the cells. After two hours, 1% substrate (Endurazine) was added, and the luminescence intensity of luciferase was measured every 30 minutes using a plate reader equipped with CO2 control and temperature control.
After 25 days, formed colonies were collected and seeded in a 96-well plate (1 × 10^3 cells/well). After three days, the luminescence intensity of luciferase was measured every 60 minutes using a plate reader with CO^2 control and temperature control, in the same manner as described above.
Subsequently, cell lines with minimal variation in circadian rhythm cycle and stable periodicity were selected. These selected cell lines, referred to as "per2 reporter cells" were used in the following experiments.
The prepared per2 reporter cells were seeded in a 96-well plate at a density of 5 × 10^3 cells/well. The medium used was high-glucose medium 1 supplemented with 10% fetal bovine serum (FBS), 1% penicillin-streptomycin, and hygromycin, and the cells were cultured at 37°C under 5% CO2 conditions.
After two days from culture, 100 nM dexamethasone was added, and the cells were treated for 2 hours, followed by adding a 1% substrate (Endurazine). Subsequently, the luminescence intensity of luciferase was measured every 12 minutes. For the measurement, high-glucose medium 2 supplemented with 5% FBS and 1% penicillin-streptomycin was used.
Subsequently, fumaric acid was added to the measurement medium to achieve a final concentration of 5 mM, and the luminescence intensity of luciferase was measured over time using a long-term real-time luminescence measurement system for cultured cells (WSL-1565, Kronos HT) to evaluate changes in circadian rhythm. For a control, the luminescence intensity of luciferase in per2 reporter cells cultured in measurement medium without fumaric acid was measured over time in the same manner.
In the luminescence intensity rhythms, valleys were represented by T and peaks by P, and they were labeled as P1, T1, P2, and T2 in order of appearance. Since P1 was unstable in rhythm, the circadian rhythm of per2 reporter cells was evaluated based on the phases of the valleys (T1 and T2) and peak (P2) after T1.

[1] = fumaric acid-added cells versus control

O=C(O)/C=C/C(=O)O [Fumaric Acid, fumaric acid]
expression level of the GPR41 gene (GPR41 gene): increased
circadian rhythm cycle, T2-T1 (per2 reporter cells; calculated from the phase difference between T1 and T2, control 29.6): 26.4 h
phase of circadian rhythm, T1 (per2 reporter cells; first valley (T1) of luciferase luminescence rhythm, U-2OS per2 reporter cells, control 22.4): 22.2 h
Difference in Cycle, T2-T1 (per2 reporter cells; [1]): -3.2 h
Difference in Phase, P2 (per2 reporter cells; [1]): -0.6 h
Difference in Phase, T1 (per2 reporter cells; [1]): -0.2 h
Difference in Phase, T2 (per2 reporter cells; [1]): -3.4 h
phase of circadian rhythm, P2 (per2 reporter cells; peak P2 of luciferase luminescence rhythm, control 34.8): 34.2 h
phase of circadian rhythm, T2 (per2 reporter cells; second valley (T2) of luciferase luminescence rhythm, control 52.0): 48.6 h
